Laboratory results as given in patent publication US10219513B2, “Safening 4-amino-3-chloro-6-(4-chloro-2-fluoro-3-methoxyphenyl)-5-fluoropyridine-2-carboxylic acid compositions in Brassica species and methods of use thereof” (Dow AgroSciences LLC, priority 2016, dated 2019).
“And” between values parts separate entries of the source, which are not always exact repeats. Identical values can stand only once.

Assays:
[1] = test system: Brassica alboglabra (kale/Chinese kale, BRSAG); experiment: Greenhouse postemergence application, visual injury after 20-22 d, BRSAG
Description: (§1) Seeds of the desired test plant species were planted in Sun Gro MetroMix® 306 planting mixture, which typically has a pH of 6.0 to 6.8 and an organic matter content of about 30 percent, in plastic pots with a surface area of 103.2 square centimeters (cm^2). […] The plants were grown for 7-36 days (d) in a greenhouse with an approximate 14-hour (h) photoperiod which was maintained at about 23° C. during the day and 22° C. during the night. Nutrients and water were added on a regular basis and supplemental lighting was provided with overhead metal halide 1000-Watt lamps as necessary. The plants were employed for testing when they reached the second or third true leaf stage.
(§2) An aliquot of formulated benzyl 4-amino-3-chloro-6-(4-chloro-2-fluoro-3-methoxyphenyl)-5-fluoropyridine-2-carboxylate (florpyrauxifen-benzyl; 300 grams active ingredient per liter (g ai/L) suspension concentrate (SC)) was placed in a 25 mL glass vial and diluted in a volume of 1.25% (v/v) aqueous Agri-dex crop oil concentrated to obtain a stock solution. […] The concentrated stock solutions were diluted with an aqueous mixture of 1.25% v/v of aqueous Agri-dex crop oil concentrate to provide the appropriate application rates. Compound requirements are based upon a 12 milliliter (mL) application volume at a rate of 187 liters per hectare (L/ha). Stock solutions of the formulated materials were prepared following the same procedure. Spray solutions of the compound mixtures were prepared by adding the stock solutions to the appropriate amount of dilution solution to form a 12 mL spray solution. Formulated compounds were applied to the plant material with an overhead Mandel track sprayer equipped with 8002E nozzles calibrated to deliver 187 L/ha over an application area of 0.503 square meters (m^2) at a spray height of 18 inches (43 centimeters (cm)) above average plant canopy. Control plants were sprayed in the same manner with the solvent blank.
(§3) The treated plants and control plants were placed in a greenhouse as described above and watered by sub-irrigation to prevent wash-off of the test compounds. After 20-22 d, the condition of the test plants as compared with that of the control plants was determined visually and scored on a scale of 0 to 100 percent where 0 corresponds to no injury and 100 corresponds to complete kill. Colby's equation was used to determine the herbicidal effects expected from the mixtures.
(§4) Benzyl 4-amino-3-chloro-6-(4-chloro-2-fluoro-3-methoxyphenyl)-5-fluoropyridine-2-carboxylate (florpyrauxifen-benzyl, 300 g ai/L SC) was combined in two-, three-, and four-way mixtures with one or more of the following: clopyralid-olamine (as Lontrel™ 35A Herbicidal Concentrate), quinclorac (as Facet 75DF), isoxadifen-ethyl (100 g/L SC), cloquintocet-mexyl (120 g/L EC) or mefenpyr-diethyl (as mefenpyr-diethyl 15WP). The mixtures were applied to kale/Chinese kale (Brassica alboglabra, BRSAG), Juncea canola or brown mustard (Brassica juncea, BRSJU), rutabaga (Brassica napus var. napobrassica, BRSNA), all varieties of canola and oilseed rape (Brassica napus, BRSNN), Nexera™ canola (Brassica napus, BRSNN-NEX), winter oilseed rape (Brassica napus, BRSNW), Roundup Ready® canola (Brassica napus, RR-BRSNN), and turnip or Polish canola (Brassica rapa, BRSRR), and the phytotoxicity of the compositions was measured.
(§5) Colby's equation was used to determine the herbicidal effects expected from the mixtures evaluated in the described trials (Colby, S. R. Calculation of the synergistic and antagonistic response of herbicide combinations. Weeds 1967, 15, 20-22.).
(§6) The following equation was used to calculate the expected activity of mixtures containing two active ingredients, A and B: Expected=A+B−(A×B/100) • A=observed efficacy of active ingredient A at the same concentration as used in the mixture; • B=observed efficacy of active ingredient B at the same concentration as used in the mixture.

[2] = test system: Brassica juncea (Juncea canola or brown mustard, BRSJU); experiment: Greenhouse postemergence application, visual injury after 20-22 d, BRSJU
Description: as §1, §2, §3, §4, §5, §6

[3] = test system: Brassica napus (all varieties of canola and oilseed rape, BRSNN); experiment: Greenhouse postemergence application, visual injury after 20-22 d, BRSNN
Description: as §1, §2, §3, §4, §5, §6

[4] = test system: Brassica napus (Nexera canola, BRSNN-NEX); experiment: Greenhouse postemergence application, visual injury after 20-22 d, BRSNN-NEX
Description: as §1, §2, §3, §4, §5, §6

[5] = test system: Brassica rapa (turnip or Polish canola, BRSRR); experiment: Greenhouse postemergence application, visual injury after 20-22 d, BRSRR
Description: as §1, §2, §3, §4, §5, §6

[6] = florpyrauxifen-benzyl 2.5 g ai/ha alone
[7] = florpyrauxifen-benzyl 5 g ai/ha alone
[8] = florpyrauxifen-benzyl 10 g ai/ha alone
[9] = florpyrauxifen-benzyl alone 2.5 g ai/ha
[10] = florpyrauxifen-benzyl alone 5 g ai/ha
[11] = florpyrauxifen-benzyl alone 10 g ai/ha
[12] = postemergence application, greenhouse, application rate (g ai/ha) varies

SMILES: COc1c(Cl)ccc(-c2nc(C(=O)OCc3ccccc3)c(Cl)c(N)c2F)c1F [Florpyrauxifen-benzyl, benzyl 4-amino-3-chloro-6-(4-chloro-2-fluoro-3-methoxyphenyl)-5-fluoropyridine-2-carboxylate]
- % Visual Injury Obs ([1]; BRSAG, 2.5 g ai/ha): 5%
- % Visual Injury Obs ([1]; BRSAG, 5 g ai/ha): 3%
- % Visual Injury Obs ([1]; BRSAG, 10 g ai/ha): 7%
- Obs % visual injury ([1]; BRSAG, florpyrauxifen-benzyl alone 2.5 g ai/ha): 5%
- Obs % visual injury ([1]; BRSAG, florpyrauxifen-benzyl alone 5 g ai/ha): 3%
- Obs % visual injury ([1]; BRSAG, florpyrauxifen-benzyl alone 10 g ai/ha): 7%
- % Visual Injury BRSAG Obs [1, 6]: 5%
- % Visual Injury Obs [1, 6]: 5%
- % Visual Injury BRSAG Obs [1, 7]: 3%
- % Visual Injury Obs [1, 7]: 3%
- % Visual Injury BRSAG Obs [1, 8]: 7%
- % Visual Injury Obs [1, 8]: 7%
- Obs % visual injury BRSAG [1, 9]: 5%
- Obs % visual injury BRSAG [1, 10]: 3%
- Obs % visual injury BRSAG [1, 11]: 7%
- % Visual Injury BRSAG Obs [1, 12]: 3% and 7% and 5%
- % Visual Injury Obs ([2]; BRSJU, 2.5 g ai/ha): 7%
- % Visual Injury Obs ([2]; BRSJU, 5 g ai/ha): 12%
- % Visual Injury Obs ([2]; BRSJU, 10 g ai/ha): 18%
- Obs % visual injury ([2]; BRSJU, florpyrauxifen-benzyl alone 2.5 g ai/ha): 7%
- Obs % visual injury ([2]; BRSJU, florpyrauxifen-benzyl alone 5 g ai/ha): 12%
- Obs % visual injury ([2]; BRSJU, florpyrauxifen-benzyl alone 10 g ai/ha): 18%
- % Visual Injury BRSJU Obs [2, 6]: 7%
- % Visual Injury Obs [2, 6]: 7%
- % Visual Injury BRSJU Obs [2, 7]: 12%
- % Visual Injury Obs [2, 7]: 12%
- % Visual Injury BRSJU Obs [2, 8]: 18%
- % Visual Injury Obs [2, 8]: 18%
- Obs % visual injury BRSJU [2, 9]: 7%
- Obs % visual injury BRSJU [2, 10]: 12%
- Obs % visual injury BRSJU [2, 11]: 18%
- % Visual Injury Obs ([3]; BRSNN, 2.5 g ai/ha): 7%
- % Visual Injury Obs ([3]; BRSNN, 5 g ai/ha): 12%
- % Visual Injury Obs ([3]; BRSNN, 10 g ai/ha): 18%
- Obs % visual injury ([3]; BRSNN, florpyrauxifen-benzyl alone 2.5 g ai/ha): 7%
- Obs % visual injury ([3]; BRSNN, florpyrauxifen-benzyl alone 5 g ai/ha): 12%
- Obs % visual injury ([3]; BRSNN, florpyrauxifen-benzyl alone 10 g ai/ha): 18%
- % Visual Injury BRSNN Obs [3, 6]: 7%
- % Visual Injury Obs [3, 6]: 7%
- % Visual Injury BRSNN Obs [3, 7]: 12%
- % Visual Injury Obs [3, 7]: 12%
- % Visual Injury BRSNN Obs [3, 8]: 18%
- % Visual Injury Obs [3, 8]: 18%
- Obs % visual injury BRSNN [3, 9]: 7%
- Obs % visual injury BRSNN [3, 10]: 12%
- Obs % visual injury BRSNN [3, 11]: 18%
- % Visual Injury Obs ([4]; BRSNN-NEX, 2.5 g ai/ha): 7%
- % Visual Injury Obs ([4]; BRSNN-NEX, 5 g ai/ha): 12%
- % Visual Injury Obs ([4]; BRSNN-NEX, 10 g ai/ha): 19%
- Obs % visual injury ([4]; BRSNN-NEX, florpyrauxifen-benzyl alone 2.5 g ai/ha): 7%
- Obs % visual injury ([4]; BRSNN-NEX, florpyrauxifen-benzyl alone 5 g ai/ha): 12%
- Obs % visual injury ([4]; BRSNN-NEX, florpyrauxifen-benzyl alone 10 g ai/ha): 19%
- % Visual Injury BRSNN-NEX Obs [4, 6]: 7%
- % Visual Injury Obs [4, 6]: 7%
- % Visual Injury BRSNN-NEX Obs [4, 7]: 12%
- % Visual Injury Obs [4, 7]: 12%
- % Visual Injury BRSNN-NEX Obs [4, 8]: 19%
- % Visual Injury Obs [4, 8]: 19%
- Obs % visual injury BRSNN-NEX [4, 9]: 7%
- Obs % visual injury BRSNN-NEX [4, 10]: 12%
- Obs % visual injury BRSNN-NEX [4, 11]: 19%
- % Visual Injury Obs ([5]; BRSRR, 2.5 g ai/ha): 6%
- % Visual Injury Obs ([5]; BRSRR, 5 g ai/ha): 9%
- % Visual Injury Obs ([5]; BRSRR, 10 g ai/ha): 14%
- Obs % visual injury ([5]; BRSRR, florpyrauxifen-benzyl alone 2.5 g ai/ha): 6%
- Obs % visual injury ([5]; BRSRR, florpyrauxifen-benzyl alone 5 g ai/ha): 9%
- Obs % visual injury ([5]; BRSRR, florpyrauxifen-benzyl alone 10 g ai/ha): 14%
- % Visual Injury BRSRR Obs [5, 6]: 6%
- % Visual Injury Obs [5, 6]: 6%
- % Visual Injury BRSRR Obs [5, 7]: 9%
- % Visual Injury Obs [5, 7]: 9%
- % Visual Injury BRSRR Obs [5, 8]: 14%
- % Visual Injury Obs [5, 8]: 14%
- Obs % visual injury BRSRR [5, 9]: 6%
- Obs % visual injury BRSRR [5, 10]: 9%
- Obs % visual injury BRSRR [5, 11]: 14%
- % Visual Injury BRSRR Obs [5, 12]: 6% and 9% and 14%
